Experimental data reported in US20020006399A1, “Therapeutic uses of hormonal manipulation using combinations of various agents to treat atherosclerosis” (priority 1999, published 2002).
Structures can show the parent of a compound that is named as a salt.

How the values were obtained:
Format in all cases: in vivo
[1] = tested on: prostate cancer patients; assay: Retrospective chart review: cardiac events in prostate cancer patients treated with LHRH inhibitors vs controls; conditions: for Events/Year: cardiac events per subject year, Total Control .0338; for observed difference between the proportions vs Total Control: events/year, treated group vs Total Control (Groups 1 + 4); for Cardiac Events: heart attack, coronary artery bypass or angioplasty, on drug at least one year, Total Control 32 events over 948 subject years; for heart attacks compared with controls: treated patients vs controls
Procedure: Another retrospective study was performed which compared the rates of patient reported heart attack in several groups 1-control group of males entering the urology office for any routine complaint. 2-a group of prostate cancer patients treated with Leuprolide acetate, a LHRH inhibitor. 3-a group of prostate cancer patients treated with Goserelin acetate (Zoladex), a LHRH inhibitor. 4-a group of prostate cancer patients not treated with hormonal manipulation (neither Leuprolide or Goserelin). 5-all patients on LHRH inhibitors (group 2+group 3). The patients on either Leuprolide or Goserelin were treated with the recommended doses indicated for the treatment of prostatic carcinoma, at either one or three month intervals depending on the preparation used. Leuprolide was dosed at 7.5 mg monthly (single intramuscular injection) or at 22.5 mg at 3 month intervals (single intramuscular injection). Goserelin was dosed at 3.6 mg monthly or at a dose of 10.8 mg at 3 month intervals (subcutaneous injection). The various groups of office patients were evaluated by chart […]. In groups 2 and 3 only those on drug for at least one year were considered. Cardiac event is defined either the history of a heart attack or occurrence of coronary artery bypass or angioplasty. In control groups only events occurring in the 3 years prior to the questionnaire are charted.

[2] = tested on: patients treated for benign prostatic hypertrophy; assay: Clinical observation of patients given finasteride for benign prostatic hypertrophy; conditions: finasteride single oral 5 mg tablet a day for BPH
Procedure: Finasteride was being administered at a dosage of a single oral 5 mg tablet a day. This is the same tablet used in treatment of BPH as disclosed in U.S. Pat. No. 5,175,155 and such dosage applies in the present invention. However, use of a 2 mg or 10 mg oral tablet is contemplated.

[3] = tested on: patients of the practice; assay: Second study: questionnaire on cardiac events in patients of the practice treated with finasteride
Procedure: Finasteride was being administered at a dosage of a single oral 5 mg tablet a day. This is the same tablet used in treatment of BPH as disclosed in U.S. Pat. No. 5,175,155 and such dosage applies in the present invention. However, use of a 2 mg or 10 mg oral tablet is contemplated. Two studies were undertaken to determine whether finasteride was, in fact, effective in lessening the incidence of heart disease and other complications of atherosclerosis. In the second study patients of the practice were given a questionnaire. Various patients had been treated with finasteride for varying lengths of time. Only those on the drug for at least one year were considered. The average time on finasteride was 3 years. The number of cardiac events occurring in the patients taking finasteride was only 4 events over 242 patient-years. (1.6%/yr.) In the control group 26 events occurred in the 3 years prior over 732 patient-years. (3.5%/yr.) The 45% decrease observed in cardiac events is believed to be significant. (90% Cl equal to 1.4% to 3.7%).

[4] = tested on: patients diagnosed with benign prostatic hypertrophy; assay: First retrospective study: cardiac events (cardiac bypass or heart attack) in BPH patients on finasteride vs alpha-blocker control; conditions: finasteride treated group of 22 subjects, 61 subject-years, on drug at least a year, 5 mg oral tablet a day; control 7 events over 288 subject-years
Procedure: Finasteride was being administered at a dosage of a single oral 5 mg tablet a day. This is the same tablet used in treatment of BPH as disclosed in U.S. Pat. No. 5,175,155 and such dosage applies in the present invention. However, use of a 2 mg or 10 mg oral tablet is contemplated. Two studies were undertaken to determine whether finasteride was, in fact, effective in lessening the incidence of heart disease and other complications of atherosclerosis. The result of the first study is as follows; A list of patients diagnosed with benign prostatic hypertrophy in late 1992 and 1993 was located. Treatment had been initiated with either finasteride or another oral agent of a different class (alpha-blocker). Patients were then contacted and an interval history was taken. In the control group of 45 subjects, 7 events (either cardiac bypass or heart attack) occurred in 6 subjects over 288 subject-years. In the finasteride treated group of 22 subjects there were no events over 61 subject-years. […] (95% Cl equal to 0.65% to 4.2%).

| SMILES | Events/Year [1] | observed difference between the proportions vs Total Control [1] | Cardiac Events [1] | heart attacks compared with controls [1] | incidence of atherosclerosis and heart disease (observation) [2] | cardiac event rate ([3]; 4 events over 242 patient-years, control 3.5%/yr) | decrease observed in cardiac events ([3]; finasteride vs control group) | number of cardiac events ([3]; over 242 patient-years, on drug at least one year, average 3 years, control 26 events over 732 patient-years) | events (either cardiac bypass or heart attack) [4] |
| --- | --- | --- | --- | --- | --- | --- | --- | --- | --- |
| CCNC(=O)[C@@H]1CCCN1C(=O)[C@H](CCCNC(=N)N)NC(=O)[C@H](CC(C)C)NC(=O)[C@@H](CC(C)C)NC(=O)[C@H](Cc1ccc(O)cc1)NC(=O)[C@H](CO)NC(=O)[C@H](Cc1c[nH]c2ccccc12)NC(=O)[C@H](Cc1c[nH]cn1)NC(=O)[C@@H]1CCC(=O)N1 [Lupron, 5-oxo-L-prolyl-L-histidyl-L-tryptophyl-L-seryl-L-tyrosyl-D-leucyl-L-leucyl-L-arginyl-N-ethyl-L-prolinamide acetate (salt)] | .00847 | 0.253 | 1 | fewer heart attacks than controls | – | – | – | – | – |
| CC(C)C[C@H](NC(=O)[C@@H](COC(C)(C)C)NC(=O)[C@H](Cc1ccc(O)cc1)NC(=O)[C@H](CO)NC(=O)[C@H](Cc1c[nH]c2ccccc12)NC(=O)[C@H](Cc1cnc[nH]1)NC(=O)[C@@H]1CCC(=O)N1)C(=O)N[C@@H](CCCNC(=N)N)C(=O)N1CCC[C@H]1C(=O)NNC(N)=O [Zoladex, pyro-Glu-His-Trp-Ser-Tyr-D-Ser(Bu)-Leu-Arg-Pro-Azgly-NH2 acetate] | .0161 | 0.0177 | 1 | fewer heart attacks than controls | – | – | – | – | – |
| CC(C)(C)NC(=O)[C@H]1CC[C@H]2[C@@H]3CC[C@H]4NC(=O)C=C[C@]4(C)[C@H]3CC[C@]12C [finasteride, 4-azaandrost-1-ene-17-carboxamide, N-(1,1-dimethylethyl)-3oxo-(5alpha 17beta)-] | – | – | – | – | lower incidence of atherosclerosis and heart disease | 1.6 %/yr | 45% | 4 events | no events |
